Measured values taken from patent US20250114362A1, “METHODS AND COMPOSITIONS FOR TREATMENT OF CUTANEOUS PROLIFERATIVE DISORDERS AND OTHER SKIN CONDITIONS” (ASYMMETRIC THERAPEUTICS, LLC, priority 2022, published 2025).
“And” between values parts separate entries of the source, which are not always exact repeats. Equal values may be shown once.

Columns and labels:
[1] = test system: HaCaT cells; test: M5 cocktail psoriasis-like HaCaT keratinocyte model, live and dead cell numbers by MultiTox-Glo Multiplex Cytotoxicity Assay; conditions: for Cell Counts, 0 hours, Dead / Cell Counts, 0 hours, Live / Cell Ratios, 0 hours, Dead / Cell Ratios, 0 hours, Total: 0 hours (baseline); for Cell Counts, 0 hours, Dead / Cell Counts, 0 hours, Live / Cell Counts, 48 hours, Dead / Cell Counts, 48 hours, Total / Cell Counts, 72 hours, Dead / Cell Counts, 72 hours, Total: M5 cocktail, ± standard deviation; for Cell Ratios, 0 hours, Dead / Cell Ratios, 0 hours, Total / Cell Ratios, 48 hours, Dead / Cell Ratios, 48 hours, Total / Cell Ratios, 72 hours, Dead / Cell Ratios, 72 hours, Total: relative to 9177 live cells at zero hours
Procedure: Immortalized human keratinocytes (HaCaT cells) purchased from AddexBio (San Diego, CA) were maintained in vitro in Dulbecco's modified Eagle's medium (DMEM) supplemented with 10% Fetal Bovine Serum (FBS) and antibiotics (100 U/mL penicillin and […] streptomycin) and cultured in an incubator with 5% CO2 at 37° C.
HaCaT cells were seeded at approximately 50% density (1×10^4 cells/well) and after 16 h the medium was replaced with 50 μL of pre-treatment medium containing different concentrations of allopurinol (0, 0.5, or 3 mM) or methotrexate (1 μM) and placed back into the incubator. Treatment media was prepared using standard media containing vehicle control (PBS) or M5 cocktail.
Other HaCaT cells were incubated in vitro for 72 hours in the presence of a M5 composition that also included 1.0 μM methotrexate, 0.5 mM allopurinol, 3.0 mM allopurinol, 0.5 mM oxypurinol, or 3.0 mM oxypurinol.
The number of live and dead cells were determined by the MultiTox-Glo Multiplex Cytotoxicity Assay (Promega, Madison WI) according to the manufacturer's protocol. A dilution series of cells was used to generate a standard curve for calculation of cell number in each well. The total number of cells was the sum of the live and dead cells.

[2] = test system: Ki67; test: MatTek PSE culture system, Ki67 level by PCR; format: cell-based, human; conditions: for Relative Ki67 Level: Day 6, normalized to control at Day 0 = 1.0; for Relative Expression Levels, Ki67: after two days of treatment
Procedure: The level of Ki67 in the MatTek tissue culture system was also determined. Ki67 is a nuclear protein and a replication marker. The level of Ki67 was determined by polymerase chain reaction (PCR) analysis with standard protocols. The relative levels are normalized with respect to the measured Ki67 level of the control at Day 0, which is adjusted to 1.0.
(§1) Other markers of cell proliferation were also measured, namely (protein p21), and four markers of inflammatory signaling (IL17A, IL23A, TNF-α, and transforming growth factor beta (TGF-β)) in the MatTek PSE culture system after two days of treatment were also determined. Ki67 is a nuclear protein and a replication marker. The marker levels were determined by isolating total RNA by a Promega SV96 Total RNA Isolation Vacuum System (Promega, Madison, WI) according to the manufacturer's instructions. The total RNA was reverse transcribed using an ABI High Capacity cDNA reverse transcription kit (Applied Biosystems, Foster City, CA). Quantitative real-time polymerase chain reaction (qPCR) was performed with the use of a SYBR Green PCR Master Mix (Applied Biosystems) according to the manufacturer's protocol and amplified on a StepOnePlus Real-Time PCR System.

[3] = test system: p21; test: MatTek PSE culture system, p21 mRNA by qPCR; format: cell-based, human; conditions: after two days of treatment
Procedure: as §1

[4] = test system: IL17A; test: MatTek PSE culture system, IL17A mRNA by qPCR; format: cell-based, human; conditions: after two days of treatment
Procedure: as §1

[5] = test system: IL23A; test: MatTek PSE culture system, IL23A mRNA by qPCR; format: cell-based, human; conditions: after two days of treatment
Procedure: as §1

[6] = test system: TNF-α; test: MatTek PSE culture system, TNF-α mRNA by qPCR; format: cell-based, human; conditions: after two days of treatment
Procedure: as §1

[7] = test system: TGF-β; test: MatTek PSE culture system, TGF-β mRNA by qPCR; format: cell-based, human; conditions: after two days of treatment
Procedure: as §1

[8] = test system: p21/Ki67; test: MatTek PSE culture system, ratio of p21 to Ki67 mRNA levels; format: cell-based, human; conditions: after two days of treatment; treatment compositions of Table 5
Procedure: Ki67 is a replication marker for cells and the lower the value, the lower the replication rate. P21 is a protein which is a marker for the inhibition of cell proliferation. Thus, an increased ratio of P21/Ki67 indicates decreased cell replication. FIG. 9 illustrates this ratio under several conditions as described in Example 2.
as §1
To highlight effects on cell proliferation, the ratio of p21 to Ki67 mRNA levels were calculated, with the results being shown in FIG. 9.

[9] = test system: psoriasis; conditions: Viglioglia et al. 1970; cited from earlier work
[10] = test system: psoriasis; conditions: oral administration; double-blind cross-over study, Feuerman et al. 1973; cited from earlier work
[11] = test system: hand-foot syndrome; conditions: topical; prevention of hand-foot syndrome; trial by Rodemer; cited from earlier work
[12] = test system: MatTek human PSE culture system (SOR-300-FT); test: MatTek human PSE culture system, tissue layer thickness and histology
Source text: The thickness of each of the three tissue layers of skin was monitored and measured after two days and after six days of exposure to the treatment medium in a blinded fashion by a board-certified and nationally respected pathologist.

Compound: Oc1ncnc2[nH]ncc12 [allopurinol]
- Cell Counts, 0 hours, Dead ([1]; 0.5 mM): 801 ± 19
- Cell Counts, 0 hours, Live ([1]; 0.5 mM): 9177 ± 90
- Cell Ratios, 0 hours, Dead ([1]; 0.5 mM): 0.087
- Cell Ratios, 0 hours, Total ([1]; 0.5 mM): 1.087
- Cell Counts, 48 hours, Dead ([1]; 0.5 mM): 2319 ± 141
- Cell Counts, 48 hours, Total ([1]; 0.5 mM): 11705 ± 161
- Cell Ratios, 48 hours, Dead ([1]; 0.5 mM): 0.253
- Cell Ratios, 48 hours, Total ([1]; 0.5 mM): 1.275
- Cell Counts, 72 hours, Dead ([1]; 0.5 mM): 4024 ± 166
- Cell Counts, 72 hours, Total ([1]; 0.5 mM): 13428 ± 216
- Cell Ratios, 72 hours, Dead ([1]; 0.5 mM): 0.44 and 0.438
- Cell Ratios, 72 hours, Total ([1]; 0.5 mM): 1.46 and 1.463
- Cell Counts, 0 hours, Dead ([1]; 3.0 mM): 801 ± 19
- Cell Counts, 0 hours, Live ([1]; 3.0 mM): 9177 ± 90
- Cell Ratios, 0 hours, Dead ([1]; 3.0 mM): 0.087
- Cell Ratios, 0 hours, Total ([1]; 3.0 mM): 1.087
- Cell Counts, 48 hours, Dead ([1]; 3.0 mM): 1275 ± 117
- Cell Counts, 48 hours, Total ([1]; 3.0 mM): 9038 ± 176
- Cell Ratios, 48 hours, Dead ([1]; 3.0 mM): 0.139
- Cell Ratios, 48 hours, Total ([1]; 3.0 mM): 0.985
- Cell Counts, 72 hours, Dead ([1]; 3.0 mM): 2004 ± 168
- Cell Counts, 72 hours, Total ([1]; 3.0 mM): 9367 ± 280
- Cell Ratios, 72 hours, Dead ([1]; 3.0 mM): 0.22 and 0.218
- Cell Ratios, 72 hours, Total ([1]; 3.0 mM): 1.02 and 1.021
- Relative Ki67 Level ([2]; 0.5 mM): 3.18
- Relative Expression Levels, Ki67 ([2]; 0.5 mM): 0.27 ± 0.01
- Relative Ki67 Level ([2]; 3 mM): 0.96
- Relative Expression Levels, Ki67 ([2]; 3 mM): 0.42 ± 0.09
- Relative Expression Levels, p21 ([3]; 0.5 mM): 1.27 ± 0.10
- Relative Expression Levels, p21 ([3]; 3 mM): 1.40 ± 0.17
- Relative Expression Levels, IL17A ([4]; 0.5 mM): 0.21 ± 0.07
- Relative Expression Levels, IL17A ([4]; 3 mM): 0.09 ± 0.04
- Relative Expression Levels, IL23A ([5]; 0.5 mM): 0.95 ± 0.20
- Relative Expression Levels, IL23A ([5]; 3 mM): 0.66 ± 0.17
- Relative Expression Levels, TNF-α ([6]; 0.5 mM): 0.75 ± 0.13
- Relative Expression Levels, TNF-α ([6]; 3 mM): 0.82 ± 0.19
- Relative Expression Levels, TGF-β ([7]; 0.5 mM): 0.90 ± 0.09
- Relative Expression Levels, TGF-β ([7]; 3 mM): 0.60 ± 0.12
- p21/Ki67 ratio (mRNA levels) [8]: markedly increased
- cases with excellent results [9]: 50%
- cases with good results [9]: 34%
- cases with moderate results [9]: 16%
- improvement in psoriasis versus placebo [10]: no improvement over a placebo
- clinical efficacy endpoint [11]: did not meet its clinical efficacy endpoint
- Layer Thickness, Dermis ([12]; 0.5 mM, 2 days): 0.4 mm
- Layer Thickness, Epidermis ([12]; 0.5 mM, 2 days): 0.1 mm
- Layer Thickness, Stratum Corneum ([12]; 0.5 mM, 2 days): 0.05 mm
- Layer Thickness, Dermis ([12]; 0.5 mM, 6 days): 0.25 mm
- Layer Thickness, Epidermis ([12]; 0.5 mM, 6 days): 0.1 mm
- Layer Thickness, Stratum Corneum ([12]; 0.5 mM, 6 days): 0.05 mm
- increase in dermis layer thickness from treatment for 2 days to 6 days ([12]; 3.0 mM allopurinol alone): 1.4 fold
- Layer Thickness, Dermis ([12]; 3 mM, 2 days): 0.25 mm
- Layer Thickness, Epidermis ([12]; 3 mM, 2 days): 0.1 mm
- Layer Thickness, Stratum Corneum ([12]; 3 mM, 2 days): 0.02 mm
- Layer Thickness, Dermis ([12]; 3 mM, 6 days): 0.35 mm
- Layer Thickness, Epidermis ([12]; 3 mM, 6 days): 0.15 mm
- Layer Thickness, Stratum Corneum ([12]; 3 mM, 6 days): 0.1 mm
